Holding throughout (assay): biochemical
Holding throughout (parameters): radiometric methyltransferase selectivity assay with tritiated SAM, per cent activity
Settings in all cases: read-out: % of control remaining

The target of one test is DNMT3A/3L (Homo sapiens, UniProt Q9Y6K1).
Another test has as its target DNMT1 (Homo sapiens, UniProt P26358). Put shortly: (§1)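 Radiometric methyltransferase assays with ³H-SAM and substrate near apparent Km, compound tested at 1 and 10 μM. Methyl incorporation into biotinylated substrate read by scintillation proximity after guanidine quench; no-compound = 100%, no-enzyme = 0% activity.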
The target of another test is T1, SUV39H1 (Homo sapiens, UniProt O43463).
T1 sequence (O43463 1-412): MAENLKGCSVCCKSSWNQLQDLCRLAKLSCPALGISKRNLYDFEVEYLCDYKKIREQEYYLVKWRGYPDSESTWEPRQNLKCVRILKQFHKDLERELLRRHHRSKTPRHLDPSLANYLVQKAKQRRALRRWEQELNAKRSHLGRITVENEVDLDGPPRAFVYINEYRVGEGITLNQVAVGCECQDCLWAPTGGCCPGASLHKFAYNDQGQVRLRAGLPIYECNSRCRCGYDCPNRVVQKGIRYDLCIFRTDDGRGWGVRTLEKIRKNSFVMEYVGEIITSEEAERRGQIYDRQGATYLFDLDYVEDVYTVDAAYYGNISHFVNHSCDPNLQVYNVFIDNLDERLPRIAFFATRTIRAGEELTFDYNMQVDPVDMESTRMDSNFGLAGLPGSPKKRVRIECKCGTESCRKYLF
Put shortly:
as §1

Another test concerns the target PRMT8 (Homo sapiens, UniProt Q9NR22). In short, it runs like this: as §1
The next test deals with DNMT3B/3L (Homo sapiens, UniProt Q9UBC3).
In the next test the target is PRMT5-MEP50 (Homo sapiens, UniProt O14744). Put shortly: as §1
In the next test the target is T2, PRMT4 (Homo sapiens, UniProt Q86X55).
T2 construct: gene CARM1
T2 sequence (Q86X55 1-608): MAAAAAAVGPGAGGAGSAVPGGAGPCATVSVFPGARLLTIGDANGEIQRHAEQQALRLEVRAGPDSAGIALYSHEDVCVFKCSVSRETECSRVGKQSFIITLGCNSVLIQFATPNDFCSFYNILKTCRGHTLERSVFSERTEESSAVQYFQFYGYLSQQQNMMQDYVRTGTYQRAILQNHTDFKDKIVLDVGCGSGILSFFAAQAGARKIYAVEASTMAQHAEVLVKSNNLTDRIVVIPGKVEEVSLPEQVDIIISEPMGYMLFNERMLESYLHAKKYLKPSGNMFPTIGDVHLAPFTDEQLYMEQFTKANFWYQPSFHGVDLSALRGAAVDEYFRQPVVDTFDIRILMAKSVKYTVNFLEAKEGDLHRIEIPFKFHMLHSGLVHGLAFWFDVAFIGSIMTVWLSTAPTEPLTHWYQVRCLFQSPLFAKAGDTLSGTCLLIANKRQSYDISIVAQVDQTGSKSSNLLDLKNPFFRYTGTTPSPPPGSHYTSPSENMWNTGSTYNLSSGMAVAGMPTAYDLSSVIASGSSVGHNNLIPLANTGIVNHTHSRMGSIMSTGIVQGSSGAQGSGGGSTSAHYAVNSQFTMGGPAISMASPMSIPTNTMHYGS
Put shortly: as §1

The target of another test is T3, SMYD3 (Homo sapiens, UniProt Q9H7B4).
T3 sequence (Q9H7B4 1-428): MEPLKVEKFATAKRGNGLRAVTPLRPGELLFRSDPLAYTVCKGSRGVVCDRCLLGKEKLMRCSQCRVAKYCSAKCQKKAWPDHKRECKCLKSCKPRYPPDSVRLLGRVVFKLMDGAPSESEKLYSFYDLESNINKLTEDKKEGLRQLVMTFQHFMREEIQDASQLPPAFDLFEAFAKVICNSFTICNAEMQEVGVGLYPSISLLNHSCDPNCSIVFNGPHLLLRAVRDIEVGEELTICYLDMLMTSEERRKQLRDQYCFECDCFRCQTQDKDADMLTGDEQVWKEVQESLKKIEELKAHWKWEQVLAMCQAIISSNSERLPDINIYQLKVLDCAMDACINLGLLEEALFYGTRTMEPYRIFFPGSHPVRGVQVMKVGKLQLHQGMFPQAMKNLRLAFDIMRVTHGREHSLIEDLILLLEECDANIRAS
Put shortly:
as §1

The values that follow come from PMC7224190, “Pharmacological inhibition of PRMT7 links arginine monomethylation to the cellular stress response” (Nature Communications, 2020).

Chain of PRMT8 (Q9NR22 whole entry): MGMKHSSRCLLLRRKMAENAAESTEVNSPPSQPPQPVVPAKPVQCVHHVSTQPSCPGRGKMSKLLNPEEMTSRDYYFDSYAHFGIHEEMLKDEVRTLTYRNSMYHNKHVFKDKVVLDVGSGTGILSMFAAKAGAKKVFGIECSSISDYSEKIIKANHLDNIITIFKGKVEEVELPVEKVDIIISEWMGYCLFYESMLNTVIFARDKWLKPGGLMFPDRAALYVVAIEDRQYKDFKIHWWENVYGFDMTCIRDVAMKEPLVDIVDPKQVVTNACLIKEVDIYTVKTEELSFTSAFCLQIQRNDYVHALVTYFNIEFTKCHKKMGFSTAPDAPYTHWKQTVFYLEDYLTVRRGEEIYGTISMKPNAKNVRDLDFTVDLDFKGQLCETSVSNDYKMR
Chain of DNMT1 (P26358 whole entry): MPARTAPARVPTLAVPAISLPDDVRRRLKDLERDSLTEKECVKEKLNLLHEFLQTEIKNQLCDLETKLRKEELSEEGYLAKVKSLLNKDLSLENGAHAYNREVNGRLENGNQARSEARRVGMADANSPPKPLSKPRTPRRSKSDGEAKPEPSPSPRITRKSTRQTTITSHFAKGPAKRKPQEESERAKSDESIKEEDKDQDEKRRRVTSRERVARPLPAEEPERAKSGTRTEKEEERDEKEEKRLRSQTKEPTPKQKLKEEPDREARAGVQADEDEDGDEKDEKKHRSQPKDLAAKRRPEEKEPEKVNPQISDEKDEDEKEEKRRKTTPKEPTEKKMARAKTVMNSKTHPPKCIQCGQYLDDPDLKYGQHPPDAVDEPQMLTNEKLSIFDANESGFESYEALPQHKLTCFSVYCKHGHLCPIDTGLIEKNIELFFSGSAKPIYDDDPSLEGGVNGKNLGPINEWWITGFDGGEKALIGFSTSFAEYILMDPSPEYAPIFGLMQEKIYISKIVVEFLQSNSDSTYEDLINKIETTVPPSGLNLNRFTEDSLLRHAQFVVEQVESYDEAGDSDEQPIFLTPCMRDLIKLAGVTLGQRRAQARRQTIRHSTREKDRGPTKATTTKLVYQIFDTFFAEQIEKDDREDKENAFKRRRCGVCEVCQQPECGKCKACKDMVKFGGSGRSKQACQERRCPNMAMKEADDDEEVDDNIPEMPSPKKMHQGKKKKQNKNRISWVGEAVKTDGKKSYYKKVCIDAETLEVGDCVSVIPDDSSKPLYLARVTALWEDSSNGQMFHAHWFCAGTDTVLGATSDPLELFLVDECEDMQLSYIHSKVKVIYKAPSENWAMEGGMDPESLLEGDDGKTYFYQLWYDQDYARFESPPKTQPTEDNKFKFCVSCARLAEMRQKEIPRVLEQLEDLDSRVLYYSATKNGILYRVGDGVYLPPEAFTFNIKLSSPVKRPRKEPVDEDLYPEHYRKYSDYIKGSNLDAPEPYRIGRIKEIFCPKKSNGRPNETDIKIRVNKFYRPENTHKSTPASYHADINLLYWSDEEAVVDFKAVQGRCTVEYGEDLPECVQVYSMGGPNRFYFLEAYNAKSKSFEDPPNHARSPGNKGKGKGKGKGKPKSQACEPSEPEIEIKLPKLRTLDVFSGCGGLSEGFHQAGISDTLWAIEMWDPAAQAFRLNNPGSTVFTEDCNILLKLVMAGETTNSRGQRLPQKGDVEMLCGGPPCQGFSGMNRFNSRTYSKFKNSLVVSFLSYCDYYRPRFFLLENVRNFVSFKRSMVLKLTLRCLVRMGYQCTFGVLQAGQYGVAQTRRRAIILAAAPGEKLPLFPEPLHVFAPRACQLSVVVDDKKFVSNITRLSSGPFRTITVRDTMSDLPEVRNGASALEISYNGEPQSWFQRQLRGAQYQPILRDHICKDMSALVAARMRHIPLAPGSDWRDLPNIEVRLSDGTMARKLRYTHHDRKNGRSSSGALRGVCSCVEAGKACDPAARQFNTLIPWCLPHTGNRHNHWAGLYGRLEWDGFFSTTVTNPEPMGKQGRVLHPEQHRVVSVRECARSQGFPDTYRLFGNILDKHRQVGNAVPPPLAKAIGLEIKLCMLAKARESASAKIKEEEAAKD
Chain of PRMT5-MEP50 (O14744 whole entry): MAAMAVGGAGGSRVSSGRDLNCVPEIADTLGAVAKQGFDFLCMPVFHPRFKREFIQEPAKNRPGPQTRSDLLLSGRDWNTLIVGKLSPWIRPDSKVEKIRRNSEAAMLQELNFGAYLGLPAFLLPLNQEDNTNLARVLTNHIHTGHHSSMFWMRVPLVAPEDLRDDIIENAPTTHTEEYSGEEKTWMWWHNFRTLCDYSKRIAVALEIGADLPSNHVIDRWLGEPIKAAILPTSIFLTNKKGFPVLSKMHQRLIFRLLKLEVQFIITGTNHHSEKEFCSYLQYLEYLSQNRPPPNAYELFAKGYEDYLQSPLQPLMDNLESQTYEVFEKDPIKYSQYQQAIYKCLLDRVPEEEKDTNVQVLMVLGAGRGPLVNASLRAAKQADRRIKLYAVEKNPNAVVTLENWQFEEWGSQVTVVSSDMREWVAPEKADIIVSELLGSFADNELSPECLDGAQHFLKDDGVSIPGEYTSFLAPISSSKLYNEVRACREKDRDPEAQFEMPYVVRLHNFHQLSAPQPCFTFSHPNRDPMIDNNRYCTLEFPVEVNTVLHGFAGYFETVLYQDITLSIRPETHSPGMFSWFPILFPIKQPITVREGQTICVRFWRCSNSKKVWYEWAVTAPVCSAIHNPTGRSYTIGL
Chain of PRMT5-MEP50 (Q9BQA1 whole entry partner): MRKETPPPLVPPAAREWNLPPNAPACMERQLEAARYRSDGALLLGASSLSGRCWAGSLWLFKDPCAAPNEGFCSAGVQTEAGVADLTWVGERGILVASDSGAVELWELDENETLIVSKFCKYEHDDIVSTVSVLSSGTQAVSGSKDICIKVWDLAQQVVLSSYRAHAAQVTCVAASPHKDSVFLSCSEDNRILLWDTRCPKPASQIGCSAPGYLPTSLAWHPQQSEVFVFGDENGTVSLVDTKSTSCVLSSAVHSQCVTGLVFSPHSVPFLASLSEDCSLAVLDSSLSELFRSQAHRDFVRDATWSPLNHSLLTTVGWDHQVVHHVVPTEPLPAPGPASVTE

As for `CC1(C)O[C@@H]2[C@H](O1)[C@@H](CSCCCCNCc1cccc(-c3ccc(Cl)cc3)c1)O[C@H]2n1cnc2c(N)ncnc21` [SGC8158N], the remaining activity at 1 µM on DNMT3A/3L was 100%; at DNMT1, 94%; on SUV39H1 it was 98%; on PRMT8, 97%; on DNMT3B/3L it was 104%; on PRMT5-MEP50, 101%. For the same compound, the remaining activity at 1 µM at PRMT4 worked out at 101%; on SMYD3 it was 100%. The remaining activity at 10 µM worked out at 99% on DNMT3A/3L; 99% at DNMT1; 78% on SUV39H1; 97% on PRMT8; 103% at DNMT3B/3L; 91% on PRMT5-MEP50. Moreover, the results for the remaining activity at 10 µM at PRMT4 and at SMYD3 were 100% and 102%, respectively.

For the compound `Nc1ncnc2c1ncn2[C@@H]1O[C@H](CSCCCCNCc2cccc(-c3ccc(Cl)cc3)c2)[C@@H](O)[C@H]1O` [SGC8158], the remaining activity at 1 µM on DNMT3A/3L stood at 100%; at DNMT1 it was 98%; at SUV39H1 it was 94%; at PRMT8 it was 92%; at DNMT3B/3L it was 100%; on PRMT5-MEP50 it was 15%. For the same compound, the remaining activity at 1 µM on PRMT4 worked out at 7%; on SMYD3, 102%. Also, the remaining activity at 10 µM was 99% on DNMT3A/3L; 91% on DNMT1; 90% on SUV39H1; 45% at PRMT8; 101% on DNMT3B/3L; 2% at PRMT5-MEP50. Besides, the remaining activity at 10 µM at PRMT4 is 0%; at SMYD3, 104%.
